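Abbreviation: GI50, concentration required for 50% inhibition of growth. TGI denotes the concentration required for complete inhibition of growth.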
Columns and labels:
Assay in all cases: NCI tumour cell line growth inhibition, 384-well format
KM12 colon = tested on: KM12 colon
MDA-MB-231 breast = tested on: MDA-MB-231 breast
UO-31 renal = tested on: UO-31 renal
OVCAR-3 ovarian = tested on: OVCAR-3 ovarian
A498 renal = tested on: A498 renal
NCI-H23 lung = tested on: NCI-H23 lung
OVCAR-4 ovarian = tested on: OVCAR-4 ovarian
SF-295 CNS = tested on: SF-295 CNS
786-0 renal = tested on: 786-0 renal
CCRF-CEM leukemia = tested on: CCRF-CEM leukemia
NCI-H226 lung = tested on: NCI-H226 lung
SF-539 CNS = tested on: SF-539 CNS
SNB-75 CNS = tested on: SNB-75 CNS
SN12C renal = tested on: SN12C renal
SK-MEL-2 melanoma = tested on: SK-MEL-2 melanoma
MDA-MB-435 melanoma = tested on: MDA-MB-435 melanoma
PC-3 prostate = tested on: PC-3 prostate
HT29 colon = tested on: HT29 colon
HS 578T breast = tested on: HS 578T breast
DU-145 prostate = tested on: DU-145 prostate
MOLT-4 leukemia = tested on: MOLT-4 leukemia
MALME-3M melanoma = tested on: MALME-3M melanoma
HCT-15 colon = tested on: HCT-15 colon
M14 melanoma = tested on: M14 melanoma
MCF7 breast = tested on: MCF7 breast
HOP-92 NSCLC = tested on: HOP-92 NSCLC
U251 glioblastoma = tested on: U251 glioblastoma
K-562 leukemia = tested on: K-562 leukemia
T-47D breast = tested on: T-47D breast
HCC-2998 colon = tested on: HCC-2998 colon
ACHN renal = tested on: ACHN renal
BT-549 breast = tested on: BT-549 breast
A549 NSCLC = tested on: A549 NSCLC
NCI-H322M lung = tested on: NCI-H322M lung
HOP-62 NSCLC = tested on: HOP-62 NSCLC
UACC-62 melanoma = tested on: UACC-62 melanoma
SW-620 colon = tested on: SW-620 colon
COLO 205 colon = tested on: COLO 205 colon
SK-MEL-28 melanoma = tested on: SK-MEL-28 melanoma
OVCAR-8 ovarian = tested on: OVCAR-8 ovarian
NCI/ADR-RES ovarian = tested on: NCI/ADR-RES ovarian
SK-OV-3 ovarian = tested on: SK-OV-3 ovarian
OVCAR-5 ovarian = tested on: OVCAR-5 ovarian
LOX IMVI melanoma = tested on: LOX IMVI melanoma
UACC-257 melanoma = tested on: UACC-257 melanoma
HL-60(TB) leukemia = tested on: HL-60(TB) leukemia
HCT-116 colon = tested on: HCT-116 colon

SMILES: CS(=O)(=O)CCNCc1ccc(-c2ccc3ncnc(Nc4ccc(OCc5cccc(F)c5)c(Cl)c4)c3c2)o1
- GI50 (KM12 colon): 2.21 µM
- TGI (KM12 colon): 3.72 µM
- GI50 (MDA-MB-231 breast): 1.93 µM
- TGI (MDA-MB-231 breast): 3.4 µM
- GI50 (UO-31 renal): 1.09 µM
- TGI (UO-31 renal): 3.89 µM
- GI50 (OVCAR-3 ovarian): 1.58 µM
- TGI (OVCAR-3 ovarian): 2.96 µM
- GI50 (A498 renal): 1.26 µM
- TGI (A498 renal): 2.52 µM
- GI50 (NCI-H23 lung): 2.07 µM
- TGI (NCI-H23 lung): 4.07 µM
- GI50 (OVCAR-4 ovarian): 1.72 µM
- TGI (OVCAR-4 ovarian): 3.19 µM
- GI50 (SF-295 CNS): 1.96 µM
- TGI (SF-295 CNS): 3.85 µM
- GI50 ([…]-0 renal): 1.34 µM
- TGI (786-0 renal): 2.62 µM
- GI50 (CCRF-CEM leukemia): 1.68 µM
- TGI (CCRF-CEM leukemia): 3.05 µM
- GI50 (NCI-H226 lung): 2.12 µM
- TGI (NCI-H226 lung): 4.75 µM
- GI50 (SF-539 CNS): 1.82 µM
- TGI (SF-539 CNS): 3.22 µM
- GI50 (SNB-75 CNS): 2.28 µM
- TGI (SNB-75 CNS): 5.28 µM
- GI50 (SN12C renal): 2.16 µM
- TGI (SN12C renal): 7.1 µM
- GI50 (SK-MEL-2 melanoma): 1.6 µM
- TGI (SK-MEL-2 melanoma): 2.96 µM
- GI50 (MDA-MB-435 melanoma): 4.97 µM
- TGI (MDA-MB-435 melanoma): 9.25 µM
- GI50 (PC-3 prostate): 1.75 µM
- TGI (PC-3 prostate): 3.28 µM
- GI50 (HT29 colon): 1.85 µM
- TGI (HT29 colon): 3.27 µM
- GI50 (HS 578T breast): 1.97 µM
- TGI (HS 578T breast): 3.48 µM
- GI50 (DU-145 prostate): 1.39 µM
- TGI (DU-145 prostate): 3.38 µM
- GI50 (MOLT-4 leukemia): 1.49 µM
- TGI (MOLT-4 leukemia): 2.82 µM
- GI50 (MALME-3M melanoma): 1.83 µM
- TGI (MALME-3M melanoma): 3.23 µM
- GI50 (HCT-15 colon): 1.45 µM
- TGI (HCT-15 colon): 2.79 µM
- GI50 (M14 melanoma): 1.93 µM
- TGI (M14 melanoma): 3.35 µM
- GI50 (MCF7 breast): 1.67 µM
- TGI (MCF7 breast): 3.06 µM
- GI50 (HOP-92 NSCLC): 1.37 µM
- TGI (HOP-92 NSCLC): 2.68 µM
- GI50 (U251 glioblastoma): 1.84 µM
- TGI (U251 glioblastoma): 3.35 µM
- GI50 (K-562 leukemia): 1.69 µM
- TGI (K-562 leukemia): 3.07 µM
- GI50 (T-47D breast): 0.605 µM
- TGI (T-47D breast): 5.69 µM
- GI50 (HCC-2998 colon): 1.81 µM
- TGI (HCC-2998 colon): 3.22 µM
- GI50 (ACHN renal): 0.398 µM
- TGI (ACHN renal): 8.09 µM
- GI50 (BT-549 breast): 1.65 µM
- TGI (BT-549 breast): 3.01 µM
- GI50 (A549 NSCLC): 1.36 µM
- TGI (A549 NSCLC): 2.69 µM
- GI50 (NCI-H322M lung): 0.179 µM
- TGI (NCI-H322M lung): 1.14 µM
- GI50 (HOP-62 NSCLC): 2.3 µM
- TGI (HOP-62 NSCLC): 4.95 µM
- GI50 (UACC-62 melanoma): 1.95 µM
- TGI (UACC-62 melanoma): 3.43 µM
- GI50 (SW-620 colon): 1.99 µM
- TGI (SW-620 colon): 3.5 µM
- GI50 (COLO 205 colon): 3.78 µM
- TGI (COLO 205 colon): 9.05 µM
- GI50 (SK-MEL-28 melanoma): 1.8 µM
- TGI (SK-MEL-28 melanoma): 3.21 µM
- GI50 (OVCAR-8 ovarian): 1.72 µM
- TGI (OVCAR-8 ovarian): 3.73 µM
- GI50 (NCI/ADR-RES ovarian): 1.56 µM
- TGI (NCI/ADR-RES ovarian): 3.47 µM
- GI50 (SK-OV-3 ovarian): 0.785 µM
- TGI (SK-OV-3 ovarian): 5.17 µM
- GI50 (OVCAR-5 ovarian): 2.74 µM
- TGI (OVCAR-5 ovarian): 7.5 µM
- GI50 (LOX IMVI melanoma): 1.8 µM
- TGI (LOX IMVI melanoma): 3.21 µM
- GI50 (UACC-257 melanoma): 1.99 µM
- TGI (UACC-257 melanoma): 3.42 µM
- GI50 (HL-60(TB) leukemia): 2.26 µM
- TGI (HL-60(TB) leukemia): 3.73 µM
- GI50 (HCT-116 colon): 1.85 µM
- TGI (HCT-116 colon): 3.45 µM
